pIC50: −log10 of the molar value.
Target: T1, Taste receptor type 2 member 31 (Homo sapiens, UniProt P59538)
T1 sequence (P59538 whole entry): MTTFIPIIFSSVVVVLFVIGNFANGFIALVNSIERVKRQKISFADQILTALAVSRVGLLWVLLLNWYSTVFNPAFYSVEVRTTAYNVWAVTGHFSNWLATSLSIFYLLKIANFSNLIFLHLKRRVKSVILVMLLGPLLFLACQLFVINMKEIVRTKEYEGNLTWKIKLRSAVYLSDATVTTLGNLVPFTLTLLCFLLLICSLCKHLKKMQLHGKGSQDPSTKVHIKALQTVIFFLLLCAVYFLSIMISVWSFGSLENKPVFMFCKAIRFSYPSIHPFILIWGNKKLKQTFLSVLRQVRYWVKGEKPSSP
Assay: Antagonist activity at human TAS2R31 expressed in HEK-293T cells stably expressing Galpha16gust44 assessed as inhibition receptor response to saccharin by fluorescence assay
Assay type: cell-based

pIC50 | SMILES
< 4.60 | CC(=O)O[C@H]1CC[C@]2(C)[C@@H](CC/C(C)=C/C(=O)O)C(C)=CC[C@H]2C1(C)C
5.10 | C=C1CC[C@H]2C(C)(C)[C@@H](OC(C)=O)CC[C@]2(C)[C@H]1CC/C(C)=C/C(=O)O

Source: ChEMBL document CHEMBL3352085, “In vitro evaluation of potential bitterness-masking terpenoids from the Canada goldenrod (Solidago canadensis)” (J Nat Prod, 2014)
